Reference: PMC5129534, “Selective Enzymatic Transformation to Aldehydes in vivo by Fungal Carboxylate Reductase from Neurospora crassa” (Advanced Synthesis & Catalysis, 2016)

What was measured:
NcCAR [1] = molecular target: T1, NcCAR (Neurospora crassa, UniProt Q7RW48); assay: spectrophotometric NADPH depletion assay, […] nm, initial rates; type: biochemical; details: apparent, ATP, MgCl2, MES buffer pH 6.0, 28 °C, 5% v/v DMSO
T1 construct: gene NCU05000; full length, codon-optimized gene, N-terminal TEV-cleavable His-tag (removed for kinetics), pETDUET1, co-expressed with E. coli phosphopantetheinyl transferase (CAQ31055.1) in E. coli BL21 (DE3) Star; 120 kDa
T1 sequence (Q7RW48 whole entry): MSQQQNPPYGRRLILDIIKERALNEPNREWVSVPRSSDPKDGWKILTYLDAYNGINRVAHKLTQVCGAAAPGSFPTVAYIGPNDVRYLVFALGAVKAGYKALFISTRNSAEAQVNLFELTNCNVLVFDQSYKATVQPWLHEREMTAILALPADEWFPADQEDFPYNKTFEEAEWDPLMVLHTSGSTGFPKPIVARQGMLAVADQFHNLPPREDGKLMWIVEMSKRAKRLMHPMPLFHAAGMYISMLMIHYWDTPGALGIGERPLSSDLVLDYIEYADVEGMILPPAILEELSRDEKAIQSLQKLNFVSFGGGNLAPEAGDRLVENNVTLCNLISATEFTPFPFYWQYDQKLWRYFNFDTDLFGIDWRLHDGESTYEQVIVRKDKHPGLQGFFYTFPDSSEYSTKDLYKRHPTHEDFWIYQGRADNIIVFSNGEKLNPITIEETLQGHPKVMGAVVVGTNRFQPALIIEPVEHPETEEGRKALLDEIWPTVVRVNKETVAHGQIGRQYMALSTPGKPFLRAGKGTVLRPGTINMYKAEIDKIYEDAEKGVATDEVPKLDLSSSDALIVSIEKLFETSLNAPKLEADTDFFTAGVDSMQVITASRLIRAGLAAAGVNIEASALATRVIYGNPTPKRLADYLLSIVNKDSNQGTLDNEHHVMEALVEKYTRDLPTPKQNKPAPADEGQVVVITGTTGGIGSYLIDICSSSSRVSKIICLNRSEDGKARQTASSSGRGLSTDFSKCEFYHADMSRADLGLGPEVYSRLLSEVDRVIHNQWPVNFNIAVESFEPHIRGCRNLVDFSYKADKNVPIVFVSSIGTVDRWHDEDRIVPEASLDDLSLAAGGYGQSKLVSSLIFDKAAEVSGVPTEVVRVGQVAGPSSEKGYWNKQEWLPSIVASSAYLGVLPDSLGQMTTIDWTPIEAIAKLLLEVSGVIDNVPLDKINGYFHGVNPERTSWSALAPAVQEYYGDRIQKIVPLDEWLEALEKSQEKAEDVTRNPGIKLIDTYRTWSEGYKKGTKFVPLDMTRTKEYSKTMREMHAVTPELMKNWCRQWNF

NcCAR [2] = molecular target: T1, NcCAR; assay: time-resolved […] NMR of cinnamic acid reduction; relief of inhibition by pyrophosphatase; type: biochemical; details: co-product inhibition, inferred, ATP, NADPH, MgCl2, Tris-HCl pH 7.5
O=C(O)c1ccc2c(c1)OCO2 = assay: purified protein; type: biochemical, Neurospora crassa; details: apparent, ATP, NADPH, MgCl2, MES buffer pH 6.0, 28 °C, substrate in water with equimolar KOH

## O=C(O)/C=C/c1ccccc1 [1a, cinnamic acid]
NcCAR [1]
  Km: 445 ± 50 µM

## O=P(O)(O)OP(=O)(O)O [pyrophosphate]
NcCAR [2]
  time-resolved 31P NMR of cinnamic acid reduction; relief of inhibition by pyroph: these results indicate the inhibition of NcCAR by the co‐product pyrophosphate

## NcCAR (Neurospora crassa OR74A)
O=C(O)c1ccc2c(c1)OCO2
  Km: 173 ± 22 µM
  kcat: 7.46 s⁻¹
